These are literature values, as cited in paper PMC9026148, “Pre-Clinical Study Evaluating Novel Protein Phosphatase 2A Activators as Therapeutics for Neuroblastoma” (Cancers, 2022).

What is called pIC50 is the IC50 on a negative log10 scale, so that one unit is a factor of ten.

pIC50: −log10 of the molar value.

This data set has as its system CYP3A4. Further details: method as in PMID 32954276. To be noted: at 1 h, cited from earlier work.

`O=S(=O)(N[C@@H]1CCC[C@H](N2c3ccccc3Oc3ccccc32)[C@H]1O)c1ccc(OC(F)(F)F)cc1` [NZ-8-061]: the “time-dependent inhibition of CYP3A4 (fold shift)” value is on record as > 30 fold. Moreover, the pIC50 (time-dependent inhibition) is > 6.00.
